# Assay results published in patent US20210355104A1, “ADENOSINE RECEPTOR BINDING COMPOUNDS” (Nikang Therapeuticsm Inc., priority 2018, published 2021).
# pIC50: −log10 of the molar value. Values joined by “and” are separate entries in the source; they are usually repeats but may differ in a detail not shown here. Equal entries are not always repeated.
# Columns and labels:
# Adenosine A2A receptor [1] = target: T1, Adenosine A2A receptor (Homo sapiens, UniProt P29274); assay: Adenosine A2A receptor competitive binding assay (Tag-lite HTRF); conditions: Tag-lite adenosine A2A receptor ligand binding
# T1 sequence (P29274 whole entry): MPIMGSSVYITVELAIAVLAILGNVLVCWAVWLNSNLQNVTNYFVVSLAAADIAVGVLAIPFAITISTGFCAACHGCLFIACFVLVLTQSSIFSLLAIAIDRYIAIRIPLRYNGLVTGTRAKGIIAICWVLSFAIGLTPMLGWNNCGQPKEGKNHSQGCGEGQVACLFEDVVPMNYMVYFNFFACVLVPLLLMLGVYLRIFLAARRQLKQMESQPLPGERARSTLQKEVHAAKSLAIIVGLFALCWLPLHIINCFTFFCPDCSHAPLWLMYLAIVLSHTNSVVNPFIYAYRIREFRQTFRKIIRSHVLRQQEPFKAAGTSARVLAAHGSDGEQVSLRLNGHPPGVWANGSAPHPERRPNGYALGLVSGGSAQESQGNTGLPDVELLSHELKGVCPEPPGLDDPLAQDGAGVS
# Experimental: Adenosine A2A Receptor Competitive Binding Assay
# The Tag-lite adenosine A2A receptor ligand binding assay is a homogeneous alternative to radioligand binding assay and developed by Cisbio (Bedford, Mass.). We carried out this assay following Cisbio's instructions with minor modification. Pre-transfected, fluorescent donor-labelled cells (Cisbio Cat#: C1TT1A2A, 200 testes) was stored at −80° C. and thawed right before use. Cells were washed once with 5 ml TLB and gently resuspended in 2 ml TLB. 4 μl suspended cells was dispensed into each well of white low-volume 384-well plate (Greiner Bio-One). Serial dilutions of compounds were prepared in Tag-lite buffer (TLB, Cisbio Cat #: LABMED) to a DMSO concentration of 0.6%. After adding 4 μl of compound dilutions to each well, 4 μl60 nM Adenosine A2A receptor red antagonist fluorescent ligand (Cisbio Cat #: L0058RED) was dispensed to each well. The 384-well assay plate was centrifuged briefly and incubated at room temperature for 2 h. HTRF signals were measured using CIARIOstar plate reader (BMG Labtech).
# Adenosine A2A receptor [2] = target: T1, Adenosine A2A receptor; assay: cAMP assay in 293A cells stably expressing the adenosine A2A receptor (CGS21680 stimulation, HTRF); assay type: cell-based; design: expressed in transfected cells; host or cells: 293A cells (Invitrogen, Cat# R705-07) infected with A2A-expressing lentivirus (custom packaged by Biosettia), puromycin selected; conditions: 293A-A2AR cells, 0.1% BSA
# [3] = 2 h room temperature, values separated by / are repeat determinations
# [4] = 8 nM CGS, values separated by / are repeat determinations, read-out: cAMP (nM) 0.1% BSA, 8 nM CGS
# [5] = 1 uM CGS, values separated by / are repeat determinations, read-out: cAMP (nM) 0.1% BSA, 1 uM CGS
# [6] = 1 uM CGS, read-out: cAMP (nM) 0.1% BSA, 1 uM CGS
SMILES,pIC50 (Adenosine A2A receptor [1]; [3]),IC50 (Adenosine A2A receptor [2]; [4]),IC50 (Adenosine A2A receptor [2]; [5]),pIC50 (Adenosine A2A receptor [1]; HTRF),IC50 (Adenosine A2A receptor [2]; [6])
"Cc1cc(-c2c(OCC3CNC3)nc(N)nc2-c2ccc(F)cc2)cc(C(F)F)n1 [Example 75, 4-(azetidin-3-ylmethoxy)-5-(2-(difluoromethyl)-6-methylpyridin-4-yl)-6-(4-fluorophenyl)pyrimidin-2-amine]",6.70,89 nM,–,–,–
"Cc1cc(-c2c(OCC3(F)CCOCC3)nc(N)nc2-c2ccc(F)cc2)cc(C(F)F)n1 [Example 102, 5-(2-(difluoromethyl)-6-methylpyridin-4-yl)-4-(4-fluorophenyl)-6-((4-fluorotetrahydro-2H-pyran-4-yl)methoxy)pyrimidin-2-amine]",9.08,–,10 nM,–,–
"Cc1cc(-c2c(OCCN(C)c3ccccc3)nc(N)nc2-c2ccc(F)cc2)cc(C(F)F)n1 [Example 87, 5-(2-(difluoromethyl)-6-methylpyridin-4-yl)-4-(4-fluorophenyl)-6-(2-(methyl(phenyl)amino)ethoxy)pyrimidin-2-amine]",7.74,2.2 nM,–,–,–
"COC(=O)NCC1(COc2nc(N)nc(-c3ccc(F)cc3)c2-c2cc(C)nc(C(F)F)c2)CCOCC1 [Example 158, methyl ((4-(((2-amino-5-(2-(difluoromethyl)-6-methylpyridin-4-yl)-6-(4-fluorophenyl)pyrimidin-4-yl)oxy)methyl)tetrahydro-2H-pyran-4-yl)methyl)carbamate]",6.20,231 nM,–,–,–
"Cc1cc(-c2c(OCc3cccc(CO[C@H]4CCOC4)n3)nc(N)nc2-c2ccc(C)o2)cc(C(F)(F)F)n1 [Example 7, (S)-5-(2-methyl-6-(trifluoromethyl)pyridin-4-yl)-4-(5-methylfuran-2-yl)-6-((6-(((tetrahydrofuran-3-yl)oxy)methyl)pyridin-2-yl)methoxy)pyrimidin-2-amine]",7.24,380 nM,–,–,–
"CCN(CC)C(=O)COc1nc(N)nc(-c2ccccc2)c1-c1cc(C)nc(C(F)F)c1 [Example 15, 2-((2-amino-5-(2-(difluoromethyl)-6-methylpyridin-4-yl)-6-phenylpyrimidin-4-yl)oxy)-N,N-diethylacetamide]",8.49,0.5 nM and 2.1 nM,–,–,–
"Cc1cc(-c2c(OCc3nc(C)n[nH]3)nc(N)nc2-c2ccc(F)cc2)cc(C(F)F)n1 [Example 97, 5-(2-(difluoromethyl)-6-methylpyridin-4-yl)-4-(4-fluorophenyl)-6-((3-methyl-1H-1,2,4-triazol-5-yl)methoxy)pyrimidin-2-amine]",7.85,4.5 nM,3310 nM,–,–
"COCCOc1nc(N)nc(-c2ccc(F)cc2)c1-c1cc(C)nc(C(F)F)c1 [Example 48, 5-(2-(difluoromethyl)-6-methylpyridin-4-yl)-4-(4-fluorophenyl)-6-(2-methoxyethoxy)pyrimidin-2-amine]",8.43,0.72 nM and 0.18 nM,–,–,–
"Cc1cc(-c2c(OCc3ccncn3)nc(N)nc2-c2ccc(F)cc2)cc(C(F)F)n1 [Example 218, 5-(2-(difluoromethyl)-6-methylpyridin-4-yl)-4-(4-fluorophenyl)-6-(pyrimidin-4-ylmethoxy)pyrimidin-2-amine]",–,–,–,8.77,76 nM and 48 nM
"CCN(CC)C(=O)[C@H](C)Oc1nc(N)nc(-c2ccccc2)c1-c1cc(C)nc(C(F)(F)F)c1 [Example 14, (S)-2-((2-amino-5-(2-methyl-6-(trifluoromethyl)pyridin-4-yl)-6-phenylpyrimidin-4-yl)oxy)-N,N-diethylpropanamide]",6.05,10000 nM,–,–,–
"CCn1nnnc1COc1nc(N)nc(-c2ccc(F)cc2)c1-c1cc(C)nc(C(F)F)c1 [Example 295, 5-(2-(difluoromethyl)-6-methylpyridin-4-yl)-4-((1-ethyl-1H-tetrazol-5-yl)methoxy)-6-(4-fluorophenyl)pyrimidin-2-amine]",–,–,–,8.13,175 nM and 69 nM and 201 nM
Cc1cc(-c2c(OCCNS(N)(=O)=O)nc(N)nc2-c2ccccc2)cc(C(F)(F)F)n1 [Example 112],8.17,3.1 nM,–,–,–
"Cc1cc(-c2c(OCCN(CCO)c3ccccn3)nc(N)nc2-c2ccc(F)cc2)cc(C(F)F)n1 [Example 153, 2-((2-((2-amino-5-(2-(difluoromethyl)-6-methylpyridin-4-yl)-6-(4-fluorophenyl)pyrimidin-4-yl)oxy)ethyl)(pyridin-2-yl)amino)ethan-1-ol]",8.05,4.1 nM,–,–,–
"Cc1cc(-c2c(OCc3nnn(C(C)C)n3)nc(N)nc2-c2ccc(F)cc2)cc(C(F)F)n1 [Example 185, 5-(2-(difluoromethyl)-6-methylpyridin-4-yl)-4-(4-fluorophenyl)-6-((2-isopropyl-2H-tetrazol-5-yl)methoxy)pyrimidin-2-amine]",8.15,–,6 nM and 25 nM,–,–
"CCN(CC)C(=O)COc1nc(N)nc(-c2ccccc2)c1-c1cc(C)nc(C(F)(F)CC)c1 [Example 17, 2-((2-amino-5-(2-(1,1-difluoropropyl)-6-methylpyridin-4-yl)-6-phenylpyrimidin-4-yl)oxy)-N,N-diethylacetamide]",8.05,7.5 nM,–,–,–
"CCOC(=O)NCCOc1nc(N)nc(-c2ccc(F)cc2)c1-c1cc(C)nc(C(F)F)c1 [Example 54, ethyl(2-((2-amino-5-(2-(difluoromethyl)-6-methylpyridin-4-yl)-6-(4-fluorophenyl)pyrimidin-4-yl)oxy)ethyl)carbamate]",8.68 and 8.00,0.22 nM and 1.45 nM,–,–,–
"CCNC(=O)NCCOc1nc(N)nc(-c2ccc(F)cc2)c1-c1cc(C)nc(C(F)F)c1 [Example 60, 1-(2-((2-amino-5-(2-(difluoromethyl)-6-methylpyridin-4-yl)-6-(4-fluorophenyl)pyrimidin-4-yl)oxy)ethyl)-3-ethylurea]",8.44 and 8.06,1.7 nM and 2.2 nM,–,–,–
"Cc1cc(-c2c(OCCC(C)(C)C(=O)O)nc(N)nc2-c2ccc(F)cc2)cc(C(F)F)n1 [Example 70, 4-((2-amino-5-(2-(difluoromethyl)-6-methylpyridin-4-yl)-6-(4-fluorophenyl)pyrimidin-4-yl)oxy)-2,2-dimethylbutanoic acid]",8.44 and 9.00 and 8.40,–,513 nM and 315 nM and 231 nM and 229 nM and 143 nM,–,–
"Cc1cc(-c2c(OCc3cc(C(C)(C)O)ccn3)nc(N)nc2-c2ccc(F)cc2)cc(C(F)F)n1 [Example 224, 2-(2-(((2-amino-5-(2-(difluoromethyl)-6-methylpyridin-4-yl)-6-(4-fluorophenyl)pyrimidin-4-yl)oxy)methyl)pyridin-4-yl)propan-2-ol]",–,–,–,8.02,1320 nM
"Cc1cc(-c2c(OCC(=O)Nc3ccccn3)nc(N)nc2-c2ccc(F)cc2)cc(C(F)F)n1 [Example 107, 2-((2-amino-5-(2-(difluoromethyl)-6-methylpyridin-4-yl)-6-(4-fluorophenyl)pyrimidin-4-yl)oxy)-N-(pyridin-2-yl)acetamide]",7.36,–,–,–,–
"Cc1cc(-c2c(OCc3nccn3C3CCOCC3)nc(N)nc2-c2ccc(F)cc2)cc(C(F)F)n1 [Example 172, 5-(2-(difluoromethyl)-6-methylpyridin-4-yl)-4-(4-fluorophenyl)-6-((1-(tetrahydro-2H-pyran-4-yl)-1H-imidazol-2-yl)methoxy)pyrimidin-2-amine]",6.78,–,–,–,–
"Cc1cc(-c2c(OCC(=O)N(C)C3COC3)nc(N)nc2-c2ccc(F)cc2)cc(C(F)F)n1 [Example 101, 2-((2-amino-5-(2-(difluoromethyl)-6-methylpyridin-4-yl)-6-(4-fluorophenyl)pyrimidin-4-yl)oxy)-N-methyl-N-(oxetan-3-yl)acetamide]",7.15,–,–,–,–
"Cc1cc(-c2c(OCCN3CCN(S(C)(=O)=O)CC3)nc(N)nc2-c2ccc(F)cc2)cc(C(F)F)n1 [Example 49, 5-(2-(difluoromethyl)-6-methylpyridin-4-yl)-4-(4-fluorophenyl)-6-(2-(4-(methylsulfonyl)piperazin-1-yl)ethoxy)pyrimidin-2-amine]",7.86,–,–,–,–
"CCN(CC)C(=O)CCc1nc(N)nc(-c2ccccc2)c1-c1cc(C)nc(C(F)(F)F)c1 [Example 18, 3-(2-amino-5-(2-methyl-6-(trifluoromethyl)pyridin-4-yl)-6-phenylpyrimidin-4-yl)-N,N-diethylpropanamide]",6.36,–,–,–,–
"Cc1cc(-c2c(C(=O)NCc3cccc(C(C)(C)O)n3)nc(N)nc2-c2ccc(F)cc2)cc(C(F)F)n1 [Example 110, 2-amino-5-(2-(difluoromethyl)-6-methylpyridin-4-yl)-6-(4-fluorophenyl)-N-((6-(2-hydroxypropan-2-yl)pyridin-2-yl)methyl)pyrimidine-4-carboxamide]",6.60,–,–,–,–
"Cc1cc(-c2c(C(=O)NC3CCCc4cccnc43)nc(N)nc2-c2ccc(F)cc2)cc(C(F)F)n1 (stereo not shown) [Example 100, 2-amino-5-(2-(difluoromethyl)-6-methylpyridin-4-yl)-6-(4-fluorophenyl)-N-(5,6,7,8-tetrahydroquinolin-8-yl)pyrimidine-4-carboxamide]",7.18,–,–,–,–
